Source: US10970594B2, “Magnetic resonance maps for analyzing tissue” (Tel HaShomer Medical Research Infrastructure and Services …, priority 2011, dated 2021)

Tests used:
[1] = common adverse effects hypertension and proteinuria; thromboembolic disease and hemorrhage infrequent; cited from earlier work
recurrent GBM = assay: Delayed enhancement subtraction maps and T1-weighted MRI of patients treated with bevacizumab (Example 5); format: in vivo, human
Protocol: In the present example, the delayed enhancement subtraction maps of the present embodiments are used for analyzing brain MRI of subjects treated with bevacizumab.
Four patients were subjected to bevacizumab (Avastin®) treatment. High resolution T1-weighted MR images were acquired and subtraction maps were calculated from these images. Acquisition sessions were held before treatment and several times after treatment. The predetermined time interval between two subtracted images was 75 minutes. Histological analysis was performed with tissue samples obtained from the on of these patients which underwent surgery after treatment with Avastin.

GBM lesion = assay: Vessel function maps of GBM patients given Bevacizumab IV after failing first line chemoradiation (Example 2, preliminary results); format: in vivo, human; settings: for change of the lesion in the map: patient #1, GBM lesion of FIG. 8
Protocol: Two GBM patients who failed first line chemoradiation were given Bevacizumab as an IV infusion, 10 mg/kg body weight every 2 weeks (standard Bevacizumab regimen for GBM patients).
The patients were recruited before Bevacizumab treatment was initiated. They underwent the first MRI exam prior to treatment. Second and third MRI exams are performed 1 week and 1 month after the administration of the first Bevacizumab dose. Two more MRI exams are performed at 3 and 5 months post initiation of treatment.
Vessel function maps were calculated at 15 and 75 min after contrast injection. Examples of two patients with 3 GBM lesions with different presentations of response to Avastin, are shown below. The response pattern to Avastin and the physiological meaning of the observed changes in the maps, are being studied.

[2] = patient of FIGS. 30A-F, at 3 months
[3] = patient of FIGS. 30A-F, first month after initiation of treatment
[4] = patient of FIGS. 31A-F, first 3 months
[5] = patient of FIGS. 32A-H, at 1 month
[6] = patient of FIGS. 32A-H, at 3 months, after re-irradiation
[7] = patient of FIGS. 32A-H, first week
[8] = patient #2, FIG. 12, 1 week after the first treatment

bevacizumab
tolerability [1]: generally well tolerated
enhancing lesion decreased by, of its original volume (recurrent GBM; [2]): about 57%
red volume decreased by (recurrent GBM; [2]): about 40%
blue volume increased by (recurrent GBM; patient of FIGS. 30A-F, at 3 months, suggesting progression): about 25%
blue volume (recurrent GBM; [3]): stable
enhancing lesion volume (on T1-Gd) decreased by (recurrent GBM; [3]): about 50%
red volume decreased by (recurrent GBM; [3]): about 50%
blue volume (recurrent GBM; patient of FIGS. 31A-F, 5 months MRI, after re-irradiation during bevacizumab treatment): decreased significantly
blue volume (recurrent GBM; [4]): increased significantly
edema (recurrent GBM; [4]): decreased
lesion volume on T1-Gd (recurrent GBM; [4]): stable
blue volume increased by (recurrent GBM; [5]): 200%
enhancing volume increased by (recurrent GBM; [5]): 70%
red volume decreased by (recurrent GBM; [5]): about 50%
blue volume increased by (recurrent GBM; [6]): over 500%
enhancing lesion volume increased by (recurrent GBM; [6]): over 500%
red volume increased by (recurrent GBM; [6]): over 500%
blue volume decreased by (recurrent GBM; [7]): 20%
enhancing lesion volume (on T1-Gd) (recurrent GBM; [7]): stable
red volume increased by (recurrent GBM; [7]): 30%
change of the lesion in the map (GBM lesion; 1 month follow-up): minor changes
change of the lesion in the map (GBM lesion; first week of treatment): became more prominently blue
blue component (GBM lesion; patient #1, recurrent GBM lesion of FIG. 10, 1 month later): increase
blue component (GBM lesion; patient #1, recurrent GBM lesion of FIG. 10, first week post treatment): decrease
blue component (GBM lesion; [8]): has not decreased
edema (GBM lesion; [8]): somewhat relieved
pressure on the brain (GBM lesion; [8]): relieved
red component of the lesion (GBM lesion; [8]): significantly decreased
blue component (GBM lesion; patient #2, FIG. 12, 3-months follow-up, in parallel to clinical deterioration, no sign of progression on conventional MRI): continued to increase
